Assay results taken from US9579314B2 (priority 2015, dated 2017).
Values joined by “and” are separate entries in the source; they are usually repeats but may differ in a detail not shown here. Equal values may be shown once. Where a name gives a salt, the structure may show the parent alone.

What was measured:
Human M3 receptor = Human M3 receptor (Homo sapiens, UniProt P20309); details: read-out: M3 binding affinity
Human β2 adrenoceptor = Human β2 adrenoceptor (Homo sapiens, UniProt P07550); details: read-out: B2 binding affinity
Human β2 adrenoceptor, sequence (P07550 whole entry): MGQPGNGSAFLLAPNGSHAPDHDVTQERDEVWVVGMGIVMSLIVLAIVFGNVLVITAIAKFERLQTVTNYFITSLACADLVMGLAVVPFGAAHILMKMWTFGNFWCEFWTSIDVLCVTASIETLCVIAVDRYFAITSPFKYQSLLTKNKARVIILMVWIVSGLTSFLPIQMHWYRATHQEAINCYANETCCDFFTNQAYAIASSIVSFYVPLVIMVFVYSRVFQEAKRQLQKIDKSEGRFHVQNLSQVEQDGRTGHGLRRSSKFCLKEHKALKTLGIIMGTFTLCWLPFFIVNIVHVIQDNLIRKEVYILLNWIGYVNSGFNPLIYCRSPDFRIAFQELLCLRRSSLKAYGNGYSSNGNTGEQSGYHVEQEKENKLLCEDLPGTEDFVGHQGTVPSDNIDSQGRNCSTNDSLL

Human M3 receptor, sequence (P20309 whole entry): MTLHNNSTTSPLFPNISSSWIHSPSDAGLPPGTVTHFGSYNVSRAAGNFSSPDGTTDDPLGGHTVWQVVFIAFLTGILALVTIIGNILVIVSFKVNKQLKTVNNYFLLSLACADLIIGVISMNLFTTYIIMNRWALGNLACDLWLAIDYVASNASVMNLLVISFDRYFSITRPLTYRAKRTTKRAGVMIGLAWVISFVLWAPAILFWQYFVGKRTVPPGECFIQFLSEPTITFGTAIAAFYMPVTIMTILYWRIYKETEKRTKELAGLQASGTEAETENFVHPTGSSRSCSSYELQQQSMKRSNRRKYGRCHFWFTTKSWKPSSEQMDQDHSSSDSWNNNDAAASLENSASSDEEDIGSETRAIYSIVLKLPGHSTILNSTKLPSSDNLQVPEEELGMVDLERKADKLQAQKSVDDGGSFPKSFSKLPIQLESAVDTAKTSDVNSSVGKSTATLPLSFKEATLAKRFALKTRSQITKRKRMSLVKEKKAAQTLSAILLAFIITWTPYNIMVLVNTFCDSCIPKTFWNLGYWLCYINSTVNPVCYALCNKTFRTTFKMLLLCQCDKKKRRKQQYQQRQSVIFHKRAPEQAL

Structure (SMILES) | IC50 (Human M3 receptor) | IC50 (Human β2 adrenoceptor)
COc1cc(NC(=O)COc2cccc([C@](O)(C(=O)OCC3CCN(Cc4ccccc4)CC3)c3ccccc3)c2)c(F)cc1CNC[C@H](O)c1ccc(O)c2[nH]c(=O)ccc12 [Compound 42B, (1-benzylpiperidin-4-yl)methyl (S)-2-(3-(2-((2-fluoro-4-((((R)-2-hydroxy-2-(8-hydroxy-2-oxo-1,2-dihydroquinolin-5-yl)ethyl)amino)methyl)-5-methoxyphenyl)amino)-2-oxoethoxy)phenyl)-2-hydroxy-2-phenylacetate] | < 0.3 nM and 0.3 to 3 nM | < 0.3 nM
O=C(NCc1ccc(COc2cccc([C@](O)(C(=O)OCC3CCN(Cc4ccccc4)CC3)c3ccccc3)c2)cc1)c1ccc(CCNC[C@H](O)c2ccc(O)c3[nH]c(=O)ccc23)cc1 [Compound 42C, (1-benzylpiperidin-4-yl)methyl (S)-2-hydroxy-2-(3-((4-((4-(2-(((R)-2-hydroxy-2-(8-hydroxy-2-oxo-1,2-dihydroquinolin-5-yl)ethyl)amino)ethyl)benzamido)methyl)benzyl)oxy)phenyl)-2-phenylacetate] | 0.3 to 3 nM | < 0.3 nM
O=C(NCc1ccc(COc2cccc([C@](O)(C(=O)OCC3CCN(Cc4ccccc4)CC3)c3ccccc3)c2)cc1)c1ccc(CNC[C@H](O)c2ccc(O)c3[nH]c(=O)ccc23)cc1 [Compound 42D, (1-benzylpiperidin-4-yl)methyl (S)-2-hydroxy-2-(3-((4-((4-((((R)-2-hydroxy-2-(8-hydroxy-2-oxo-1,2-dihydroquinolin-5-yl)ethyl)amino)methyl)benzamido)methyl)benzyl)oxy)phenyl)-2-phenylacetate] | 0.3 to 3 nM | < 0.3 nM
COc1cc(CNC[C@H](O)c2ccc(O)c3[nH]c(=O)ccc23)ccc1C(=O)NCc1ccc(COc2cccc([C@](O)(C(=O)OCC3CCN(Cc4ccccc4)CC3)c3ccccc3)c2)cc1 [Compound 42E, (1-benzylpiperidin-4-yl)methyl (S)-2-hydroxy-2-(3-((4-((4-((((R)-2-hydroxy-2-(8-hydroxy-2-oxo-1,2-dihydroquinolin-5-yl)ethyl)amino)methyl)-2-methoxybenzamido)methyl)benzyl)oxy)phenyl)-2-phenylacetate] | 0.3 to 3 nM | < 0.3 nM
COc1cc(C(=O)NCc2ccc(COc3cccc([C@](O)(C(=O)OCC4CCN(Cc5ccccc5)CC4)c4ccccc4)c3)cc2)ccc1CNC[C@H](O)c1ccc(O)c2[nH]c(=O)ccc12 [Compound 42F, (1-benzylpiperidin-4-yl)methyl (S)-2-hydroxy-2-(3-((4-((4-((((R)-2-hydroxy-2-(8-hydroxy-2-oxo-1,2-dihydroquinolin-5-yl)ethyl)amino)methyl)-3-methoxybenzamido)methyl)benzyl)oxy)phenyl)-2-phenylacetate] | 0.3 to 3 nM | < 0.3 nM
O=C(NCCCNC[C@H](O)c1ccc(O)c2[nH]c(=O)ccc12)c1ccc(COc2cccc([C@](O)(C(=O)OCC3CCN(Cc4ccccc4)CC3)c3ccccc3)c2)cc1 [Compound 43, (S)-(1-Benzylpiperidin-4-yl)methyl 2-hydroxy-2-(3-((4-((3-(((R)-2-hydroxy-2-(8-hydroxy-2-oxo-1,2-dihydroquinolin-5-yl)ethyl)amino)propyl)carbamoyl)benzyl)oxy)phenyl)-2-phenylacetate] | < 0.3 nM | < 0.3 nM
O=C(NCCCNC[C@H](O)c1ccc(O)c2[nH]c(=O)ccc12)c1ccc(COc2cccc([C@@](O)(C(=O)OCC3CCN(Cc4ccccc4)CC3)c3ccccc3)c2)cc1 [Compound 44, (R)-(1-Benzylpiperidin-4-yl)methyl 2-hydroxy-2-(3-((4-((3-(((R)-2-hydroxy-2-(8-hydroxy-2-oxo-1,2-dihydroquinolin-5-yl)ethyl)amino)propyl)carbamoyl)benzyl)oxy)phenyl)-2-phenylacetate] | 0.3 to 3 nM | < 0.3 nM
O=C(c1cccc(COc2cccc([C@](O)(C(=O)OCC3CCN(Cc4ccccc4)CC3)c3ccccc3)c2)c1)N(CCCNC[C@H](O)c1ccc(O)c2[nH]c(=O)ccc12)Cc1ccccc1 [Compound 45, (S)-(1-Benzylpiperidin-4-yl)methyl 2-(3-((3-(benzyl(3-(((R)-2-hydroxy-2-(8-hydroxy-2-oxo-1,2-dihydroquinolin-5-yl)ethyl)amino)propyl)carbamoyl)benzyl)oxy)phenyl)-2-hydroxy-2-phenylacetate] | 0.3 to 3 nM | 0.3 to 3 nM
O=C(NCCCCNC[C@H](O)c1ccc(O)c2[nH]c(=O)ccc12)c1cccc(C(O)(C(=O)OCC2CCN(Cc3ccccc3)CC2)c2ccccc2)c1 (stereo partly drawn) [Compound 47, (1-benzylpiperidin-4-yl)methyl 2-hydroxy-2-(3-((4-(((R)-2-hydroxy-2-(8-hydroxy-2-oxo-1,2-dihydroquinolin-5-yl)ethyl)amino)butyl)carbamoyl)phenyl)-2-phenylacetate diformate] | 0.3 to 3 nM | < 0.3 nM
O=C(NCCCNC(=O)c1cccc(C(O)(C(=O)OCC2CCN(Cc3ccccc3)CC2)c2ccccc2)c1)c1ccc(CNC[C@H](O)c2ccc(O)c3[nH]c(=O)ccc23)cc1 (stereo partly drawn) [Compound 50, (1-benzylpiperidin-4-yl)methyl 2-hydroxy-2-(3-((3-(4-((((R)-2-hydroxy-2-(8-hydroxy-2-oxo-1,2-dihydroquinolin-5-yl)ethyl)amino)methyl)benzamido)propyl)-carbamoyl)phenyl)-2-phenylacetate diformate] | 0.3 to 3 nM | > 3 nM
O=C(OCC1CCN(Cc2ccccc2)CC1)C(O)(c1ccccc1)c1ccc(OCCCCCNC[C@H](O)c2ccc(O)c3[nH]c(=O)ccc23)cc1 (stereo partly drawn) [Compound 51, (1-benzylpiperidin-4-yl)methyl 2-hydroxy-2-(4-((5-(((R)-2-hydroxy-2-(8-hydroxy-2-oxo-1,2-dihydroquinolin-5-yl)ethyl)amino)pentyl)oxy)phenyl)-2-phenylacetate diformate] | 0.3 to 3 nM | < 0.3 nM
O=C(NCc1ccc(COc2ccc(C(O)(C(=O)OCC3CCN(Cc4ccccc4)CC3)c3ccccc3)cc2)cc1)c1ccc(CNC[C@H](O)c2ccc(O)c3[nH]c(=O)ccc23)cc1 (stereo partly drawn) [Compound 53, (1-benzylpiperidin-4-yl)methyl 2-hydroxy-2-(4-((4-((4-((((R)-2-hydroxy-2-(8-hydroxy-2-oxo-1,2-dihydroquinolin-5-yl)ethyl)amino)methyl)benzamido)methyl)-benzyl)oxy)phenyl)-2-phenylacetate diformate] | > 3 nM | > 3 nM
O=C(Nc1cccc(C(O)(C(=O)OCC2CCN(Cc3ccccc3)CC2)c2ccccc2)c1)OCCCCCNC[C@H](O)c1ccc(O)c2[nH]c(=O)ccc12 (stereo partly drawn) [Compound 54, (1-benzylpiperidin-4-yl)methyl 2-hydroxy-2-(3-((((5-(((R)-2-hydroxy-2-(8-hydroxy-2-oxo-1,2-dihydroquinolin-5-yl)ethyl)amino)pentyl)oxy)carbonyl)amino)-phenyl)-2-phenylacetate bis hydrochloride] | 0.3 to 3 nM | < 0.3 nM
O=C(NCCCNC(=O)c1ccc(CNC[C@H](O)c2ccc(O)c3[nH]c(=O)ccc23)cc1)Nc1cccc(C(O)(C(=O)OCC2CCN(Cc3ccccc3)CC2)c2ccccc2)c1 (stereo partly drawn) [Compound 56, (1-benzylpiperidin-4-yl)methyl 2-hydroxy-2-(3-(3-(3-(4-((((R)-2-hydroxy-2-(8-hydroxy-2-oxo-1,2-dihydroquinolin-5-yl)ethyl)amino)methyl)benzamido)-propyl)ureido)phenyl)-2-phenylacetate diformate] | > 3 nM | > 3 nM
